Target: GTPase KRas [G12C,C51S,C80L,C118S]/RAF proto-oncogene serine/threonine-protein kinase (Homo sapiens, UniProt P01116, C118S/C51S/C80L/G12C)
Test: Inhibition of KRASG12C and cRAF Binding
Procedure: Compounds were diluted in 100% DMSO and each compound concentration was spotted at 200 nl/well onto low volume, white 384 well plates. […] Plates were incubated for 19-20 hours. A mixture of RBD and the AlphaScreen streptavidin donor and glutathione acceptor beads diluted in 25 mM Hepes, pH 7.4, 150 mM NaCl, 5 mM MgCl2, 0.01% TritonX-100 and 2% DMSO was then added at 10 ul/well and incubated for 60-90 minutes before the samples were read for emission at 570 nm after excitation of the donor beads at 680 nm. All incubations were performed at room temperature. […] IC50s were determined using nonlinear regression fit of [inhibitor]vs. response (4 parameters).

Chain of GTPase KRas [G12C,C51S,C80L,C118S]/RAF proto-oncogene serine/threonine-protein kinase (P01116 1-169 G12C/C51S/C80L/C118S): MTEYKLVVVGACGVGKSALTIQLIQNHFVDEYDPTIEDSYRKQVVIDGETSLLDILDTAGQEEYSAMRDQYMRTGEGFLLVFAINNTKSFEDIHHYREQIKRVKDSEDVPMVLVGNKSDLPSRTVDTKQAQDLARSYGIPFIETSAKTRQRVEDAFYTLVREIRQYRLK

## C=CC(=O)[C@]12CCN(c3nc(OC[C@@H]4CCCN4C)nc4c3CCN(c3cccc5cccc(Cl)c35)C4)C[C@H]1C2 [US20250019387, Example 44]
  IC50: < 10 nM

From BindingDB's records for patent US20250019387 (Frontier Medicines, 2025)
